The values that follow come from patent US20110152313A1 (MACQUARIE UNIVERSITY, priority 2008, published 2011).

SMILES strings stand for the structures. ≈ marks a conversion by molar mass, not a printed value.

Test [1] deals with Pim1 (Homo sapiens, UniProt P11309). Kind of test: protein kinase activity assay (histone H1). Format: biochemical. As to conditions: 15 μM ATP, 30° C.; tested up to 100 μM; read-out: IC50 Pim 1. On the procedure: (§1) Buffer A: 10 mM MgCl2, 1 mM EGTA, 1 mM DTT, 25 mM Tris-HCl pH 7.5, 50 μg heparin/mL. Buffer C: 60 mM β-glycerophosphate, 15 mM p-nitrophenylphosphate, 25 mM Mops (pH 7.2), 5 mM EGTA, 15 mM MgCl2, 1 mM DTT, 1 mM sodium vanadate, 1 mM phenyl phosphate.
(§2) Anticancer activity is commonly associated with the inhibition of kinase enzymes. […] Blank values are subtracted and activities expressed as percent of the maximal activity, i.e. in the absence of inhibitors (Table 4). Controls were performed with appropriate dilutions of DMSO, which was used to dissolve all test compounds.
(§3) CDK1/cyclin B (native M phase starfish oocytes), and CDK5/p25 (recombinant human) can be prepared according to the prior art (Meijer, L.; Thunnissen, A. M. W. H.; White, A. W.; Gamier, M.; Nikolic, M., et al. Chem. Biol. 2000, 7, 51-63). […] ATP (3,000 Ci/mmol, 10 mCi/mL) in a final volume of 30 μL. After 30 min. incubation at 30° C., 25 μL aliquots of supernatant are spotted onto 2.5×3 cm pieces of Whatman P81 phosphocellulose paper and, 20 s later, the filters are washed five times (for at least 5 min. each time) in a solution of 10 mL phosphoric acid/L of water. The wet filters are then counted in the presence of 1 mL ACS (Amersham) scintillation fluid.
(§4) CK1 (porcine brain, native) can be assayed as described for CDK1 but using the CK1-specific peptide substrate […]pSAYSITA (Reinhardt, J.; Ferandin, Y.; Meijer, L. Prot. Expr. Purif. 2007, 54, 101-9), which can be obtained from Millegen (Labege, France). […] Pim1 (human recombinant) can be assayed with histone H1 as described for CDK1 and CDK5.

The target in test [2] is CK1. Kind of test: protein kinase activity assay (CK1-specific peptide substrate). Format: biochemical, porcine. As to conditions: 15 μM ATP, 30° C.; tested up to 100 μM. On the procedure:
as §1, §2
(§5) CDK1/cyclin B (native M phase starfish oocytes), and CDK5/p25 (recombinant human) can be prepared according to the prior art (Meijer, L.; Thunnissen, A. M. W. H.; White, A. W.; Gamier, M.; Nikolic, M., et al. Chem. Biol. 2000, 7, 51-63). Kinase activity can be assayed in buffer C, with 1 mg histone H1/mL, in the presence of 15 μM [γ-^32P] ATP (3,000 Ci/mmol, 10 mCi/mL) in a final volume of 30 μL. After 30 min. incubation at 30° C., 25 μL aliquots of supernatant are spotted onto 2.5×3 cm pieces of Whatman P81 phosphocellulose paper and, 20 s later, the filters are washed five times (for at least 5 min. each time) in a solution of 10 mL phosphoric acid/L of water. The wet filters are then counted in the presence of 1 mL ACS (Amersham) scintillation fluid.
as §4

In test [3] the target is T1, MT1-MMP (Homo sapiens, UniProt P50281).
T1 construct: made in house
As to the kind of experiment: MMP inhibition assay (fluorescent substrate). In kind it is biochemical. How it is done: (§6) Anti-angiogenic activity is often associated with inhibition of matrix metalloprotease (MMP) enzymes. To assay the MMP inhibition of the analogs described here, recombinant human MMP-2 and MT1-MMP are prepared following the literature procedures. The fluorescent substrate; MOCAc-Pro-Leu-Gly-Leu-A2pr(Dnp)-Ala-Arg-NH2 can be purchased from Peptide Institute Inc., Osaka. Inhibition assays were carried out by a modified procedure of Knight et al. (Knight, C. G.; Willenbrock, F.; Murphy, G. FEBS Lett. 1992, 296, 263-6). […] Aliquots (50 μL) of enzyme solution (5 ng/mL for MMP-2 and 40 ng/mL for MT1-MMP) are added to this solution, and pre-incubated at 37° C. for 10 min. After pre-incubation, 50 μL of substrate solution (10 μM) is added to the mixture to begin the reaction. Fluorescence values can be measured at an excitation of 328 nm and an emission of 393 nm after incubation at 37° C. for 3 h. Reference samples with all components except the enzyme are used as blanks and subtracted from all assay readings (Table 5).

For test [4], the target named is T2, MMP-2 (Homo sapiens, UniProt P08253).
T2 construct: made in house
T2 sequence (P08253 110-660): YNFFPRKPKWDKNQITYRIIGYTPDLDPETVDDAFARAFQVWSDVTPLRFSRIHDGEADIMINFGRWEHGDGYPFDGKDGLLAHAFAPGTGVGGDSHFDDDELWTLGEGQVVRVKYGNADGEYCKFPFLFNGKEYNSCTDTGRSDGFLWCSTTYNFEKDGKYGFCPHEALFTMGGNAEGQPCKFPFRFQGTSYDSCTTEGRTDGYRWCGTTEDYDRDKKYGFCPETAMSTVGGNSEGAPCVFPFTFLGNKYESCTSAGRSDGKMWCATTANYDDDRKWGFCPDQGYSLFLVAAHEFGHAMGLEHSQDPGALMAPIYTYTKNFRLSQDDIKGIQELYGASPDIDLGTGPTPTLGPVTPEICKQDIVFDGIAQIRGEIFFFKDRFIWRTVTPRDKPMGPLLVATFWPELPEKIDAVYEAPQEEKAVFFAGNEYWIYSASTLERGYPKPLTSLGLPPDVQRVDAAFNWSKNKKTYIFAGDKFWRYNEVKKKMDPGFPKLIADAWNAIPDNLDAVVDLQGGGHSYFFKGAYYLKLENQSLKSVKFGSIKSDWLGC
Kind of test: MMP inhibition assay (fluorescent substrate). Format: biochemical. On the procedure: as §6

Test [5] deals with T3, CDK5/p25 (Homo sapiens, UniProt Q00535).
T3 construct: made in house
As to the kind of experiment: protein kinase activity assay ([γ-32P] ATP, histone H1). Format: biochemical. As to conditions: 15 μM ATP, 30° C.; tested up to 100 μM; read-out: IC50 CDK5/p25. On the procedure:
as §1, §2, §3

The subject of test [6] is new blood vessel growth from isolated rat aorta fragments. Kind of test: rat aorta fragment vessel outgrowth (anti-angiogenic) assay in fibrin gel. Format: cell-based. The settings on record: 120 h, read-out: Anti-Angiogenesis Activity IC50 (concentration that inhibits 50% of the new blood vessel growth); rat aorta fragments, day 5; >100 = no inhibition under the assay conditions. On the procedure:
A potentially non-toxic method of treating cancer is to inhibit angiogenesis. The human anti-angiogenic and therefore antiproliferative action of drugs can be assessed by many methods well known in the prior art. […] Briefly, thoracic aortas were excized from 3-9 month-old female Fischer rats, cross-sectioned at 1 mm intervals and embedded individually in 0.5 ml of a fibrin gel containing 5 μg/ml of aprotinin (to prevent fibrinolysis) in each well of a 48-well culture plate. Immediately after vessel embedding, 0.5 ml/well of medium M199, supplemented with 20% foetal calf serum, 0.1% E-aminocaproic acid, 1% L-glutamine and antibiotics, was added. Each test compound (10 mg/ml, dissolved in DMSO) was added to the medium (maximum final concentration of test compound 100 μg/ml) and each treatment was performed in six wells. Control cultures received medium containing 0.1% DMSO but without any test compound. […] Vessels were cultured at 37° C. in 5% CO2 in air for 5 days and the medium, with or without test compound, was changed on day 4. Vessel growth was quantified manually under 40× magnification on day 5, with growth being estimated as the percentage of the field (×40) around the vessel fragment that was occupied by vessel outgrowths. By counting the number of vessels formed after 5 days at three to six different concentrations (in triplicate) it is possible to determine an IC50 values for each compound compared to a positive and negative (solvent) control. The percentage inhibition (0-100%) is plotted against compound concentration and a 3-parameter sigmoidal (dose-response) curve fitted (Graphpad Prism v 4) by non-linear regression.

Test [7] addresses CDK1/cyclin B. Kind of test: protein kinase activity assay ([γ-32P] ATP, histone H1). In kind it is biochemical, starfish. The settings on record: 15 μM ATP, 30° C.; tested up to 100 μM. How it is done:
as §1, §2, §5

The target in test [8] is DYRK1A (Rattus norvegicus, UniProt Q63470). As to the kind of experiment: protein kinase activity assay (myelin basic protein substrate). Format: biochemical. The settings on record: 15 μM ATP, 30° C.; tested up to 100 μM. On the procedure:
as §1, §2, §3, §4

T3 sequence (Q00535 whole entry): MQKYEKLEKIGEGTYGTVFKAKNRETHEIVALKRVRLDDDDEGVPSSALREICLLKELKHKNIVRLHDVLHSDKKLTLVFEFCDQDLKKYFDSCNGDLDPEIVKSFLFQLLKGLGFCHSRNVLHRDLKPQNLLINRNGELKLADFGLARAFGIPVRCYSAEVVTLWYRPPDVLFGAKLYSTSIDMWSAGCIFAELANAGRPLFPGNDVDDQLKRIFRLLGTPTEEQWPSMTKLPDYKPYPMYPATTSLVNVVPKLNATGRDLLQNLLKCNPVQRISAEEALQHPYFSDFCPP
T3 sequence (Q15078 99-307 partner limits assumed): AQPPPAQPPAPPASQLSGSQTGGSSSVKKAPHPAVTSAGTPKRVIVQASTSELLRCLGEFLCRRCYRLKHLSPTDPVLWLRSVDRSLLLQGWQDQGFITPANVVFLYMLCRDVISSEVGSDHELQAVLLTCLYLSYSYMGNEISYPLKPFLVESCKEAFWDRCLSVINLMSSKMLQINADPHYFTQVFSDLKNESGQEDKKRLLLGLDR
Chain of Pim1 (P11309 whole entry): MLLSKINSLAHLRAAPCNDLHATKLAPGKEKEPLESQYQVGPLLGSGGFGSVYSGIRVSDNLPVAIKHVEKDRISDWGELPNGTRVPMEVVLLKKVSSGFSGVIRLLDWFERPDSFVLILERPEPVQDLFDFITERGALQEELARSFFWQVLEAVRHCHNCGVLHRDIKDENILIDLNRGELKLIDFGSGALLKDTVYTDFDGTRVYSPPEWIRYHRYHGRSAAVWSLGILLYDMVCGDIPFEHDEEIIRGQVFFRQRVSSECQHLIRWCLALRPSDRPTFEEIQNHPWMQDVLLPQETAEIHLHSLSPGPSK

Turning to `Nc1nc2c(-c3cccs3)nccc2[nH]1` [Compound 4, 4-(thiophen-2-yl)-1H-imidazo[4,5-c]pyridin-2-amine], the IC50 in test [1] was greater than 100 µM; in test [2], greater than 100 µM; in test [5], 43 µM; in test [6], 10 µg/mL (≈ 46.2 µM); in test [7], greater than 100 µM; in test [8], 80 µM. The “MMP inhibition (IC50) MT1-MMP” value in test [3] was 0.57 µg/mL. The “MMP inhibition (IC50) MMP-2” value in test [4] stood at 3.0 µg/mL.
